According to ChEMBL document CHEMBL5226306, “Intestinal Excretion, Intestinal Recirculation, and Renal Tubule Reabsorption Are Underappreciated Mechanisms That Drive the Distribution and Pharmacokinetic Behavior of Small Molecule Drugs” (J Med Chem, 2021):
Each block holds one molecule with its values, some of them ahead of it.

Columns and labels:
[1] = in vivo; conditions: rat
[2] = Unbound fraction in human plasma; format: ADME, cell-free
[3] = Clearance in rat urine; format: ADME, tissue-based
[4] = Renal excretion in rat; format: ADME, tissue-based, Kidney; conditions: in vivo, read-out: Drug excretion (converted)
[5] = Intestinal clearance in rat; format: ADME; conditions: in vivo
[6] = Total plasma clearance in rat assessed as hepatic blood flow; format: ADME, cell-free
[7] = Tubular reabsorption in dog; format: ADME, Canis lupus familiaris
[8] = in vivo; conditions: rat, po
[9] = Total plasma clearance in dog assessed as hepatic blood flow; format: ADME, cell-free, Canis lupus familiaris
[10] = Elimination half life in human
[11] = Intestinal clearance in human; format: ADME
[12] = Drug excretion in BDC dog urine; format: ADME, tissue-based, Canis lupus familiaris
[13] = Drug elimination in human urine; format: ADME, tissue-based; conditions: read-out: Drug excretion
[14] = Drug excretion in rat bile; format: ADME, tissue-based; conditions: read-out: Drug excretion
[15] = Oral bioavailability in human; format: ADME, organism-based; conditions: in vivo
[16] = Total plasma clearance in human assessed as hepatic blood flow; format: ADME, cell-free
[17] = Renal clearance in dog; format: ADME, tissue-based, Canis lupus familiaris, Kidney; conditions: in vivo
[18] = Volume of distribution in human
[19] = Intestinal clearance in dog; format: ADME, Canis lupus familiaris; conditions: in vivo
[20] = Total systemic clearance in dog; format: ADME, Canis lupus familiaris; conditions: in vivo
[21] = Clearance in dog bile; format: ADME, tissue-based, Canis lupus familiaris; conditions: in vivo
[22] = Drug recovery in IV dosed BDC rat feces; format: ADME, organism-based; conditions: faeces, read-out: Drug recovery
[23] = Intestinal excretion in iv dosed dog; format: ADME, organism-based, Canis lupus familiaris, Intestine; conditions: in vivo, read-out: Drug excretion
[24] = Intestinal excretion in iv dosed rat; format: ADME, organism-based, Intestine; conditions: in vivo, read-out: Drug excretion
[25] = Total systemic clearance in rat; format: ADME; conditions: in vivo

- CL renal [1]: 0.08 mL/min/kg
- fraction unbound [2]: 0.085
SMILES: CCOc1ccc(Cc2cc([C@@H]3O[C@H](CO)[C@@H](O)[C@H](O)[C@H]3O)ccc2Cl)cc1 [DAPAGLIFLOZIN]

- CL renal [3]: 11.8 mL/min/kg
- CL renal [4]: 0.217 mL/min/kg
- CL [5]: > 20%
- QH [6]: < 5%
- Drug absorption [7]: 0.483 mL/min/kg
- Tmax [8]: 2 h
- QH [9]: < 5%
- half-life [10]: 12 h
- CL [11]: > 27%
- dose excreted [12]: 21%
- dose excreted [13]: 27%
- dose excreted [14]: 10%
- bioavailability [15]: 49%
- QH [16]: < 5%
- CL renal [17]: 0.333 mL/min/kg
- fraction unbound [2]: 0.07
- Vd [18]: 0.3 L/kg
- CL [19]: > 42%
SMILES: COc1ccc(-n2nc(C(N)=O)c3c2C(=O)N(c2ccc(N4CCCCC4=O)cc2)CC3)cc1 [APIXABAN]

- Fu [2]: 0.2
SMILES: C[C@H]1O[C@@H](O[C@H]2[C@@H](O)C[C@H](O[C@H]3[C@@H](O)C[C@H](O[C@H]4CC[C@@]5(C)[C@H](CC[C@@H]6[C@@H]5C[C@@H](O)[C@]5(C)[C@@H](C7=CC(=O)OC7)CC[C@]65O)C4)O[C@@H]3C)O[C@@H]2C)C[C@H](O)[C@@H]1O [DIGOXIN]

- Fu [2]: 0.01
SMILES: CC(C)(O)[C@H](F)CN1Cc2cc(NC(=O)c3cnn4cccnc34)c(N3CCOCC3)cc2C1=O

- CL [20]: 19%
- CL [21]: 0.04 mL/min/kg
- fraction unbound [2]: 0.01
SMILES: CS(=O)(=O)c1ccc(C(=O)Nc2ccc(Cl)c(-c3ccccn3)c2)c(Cl)c1 [VISMODEGIB]

- dose excreted [22]: 20%
- dose excreted [23]: 20%
- dose excreted [24]: 20%
- CL [25]: 20%
SMILES: COc1ccc(-n2nc(C(N)=O)c3c2C(=O)N(c2ccc(N4CCCC[14C]4=O)cc2)CC3)cc1

- fraction unbound [2]: 0.4
SMILES: O=C1CN(/N=C/c2ccc([N+](=O)[O-])o2)C(=O)N1 [NITROFURANTOIN]
